Measurements published in patent publication US20070004036A1, “Methods and compositions for keratinocyte culture” (priority 2005, published 2007).

System: Human dermal adult and newborn skin fibroblasts
Test: Fibroblast proliferation in SFM and serum-containing media
Type: cell-based
Details: primary and secondary culture, FIG. 5
Description: Human dermal adult and newborn skin fibroblasts were cultured in a SFM and serum-containing media (DMEM 5% FBS). Collagenase (1 μg/ml) was added to the DMEM serum free media (SFM) and tested on primary and secondary culture of human adult and newborn fibroblasts. In both cases (SFM and DMEM 5%) Collagenase increase cell proliferation up to 2-2.5 fold over the controls.

Collagenase was tested, and the “increase in cell proliferation over the controls” value (DMEM 5% FBS) was 2-2.5 fold and the “increase in cell proliferation over the controls” value (SFM, collagenase 1 μg/ml) was 2-2.5 fold.
